Among the data in patent publication US20050165028A1, “Vanilloid receptor ligands and their use in treatments” (priority 2004, published 2005) are melting point values, retold here.

Usually melting point stands for the temperature of the solid-liquid transition. The compound `O=C(Nc1ccc2c(c1)OCCO2)c1ccc(-c2cccs2)cc1` [Example 15, N-(2,3-Dihydro-benzo[1,4]dioxin-6-yl)-4-thiophen-2-yl-benzamide] gave a melting point of 192 to 195 °C.
